Laboratory results from patent publication US9340493B2, “Hydroxamic acid derivatives useful as antibacterial agents” (Pfizer Inc., priority 2008, dated 2016).
≈ marks a conversion by molar mass, not a printed value.

How the values were obtained:
[1] = tested on: Escherichia coli EC-1; experiment: MIC determination, E. coli EC-1; type: cell-based; settings: EC1, EC-1: VOGEL, * = arithmetic mean of 2-6 MIC determinations, read-out: MIC (ug/mL) E. coli EC-1
Procedure: (§1) MIC determinations: The in vitro antibacterial activity of compounds described in the Examples was evaluated by minimum inhibitory concentration (MIC) testing according to Clinical and Laboratory Standards Institute (CLSI, formerly NCCLS) guidelines. See: Clinical and Laboratory Standards Institute. Methods for Dilution Antimicrobial Susceptibility Tests for Bacteria that Grow Aerobically; Approved Standard-Seventh Edition. CLSI document M7-A7 [ISBN 1-56238-587-9]. Clinical and Laboratory Standards Institute, 940 West Valley Road, Suite 1400, Wayne, Pa. 19087-1898 USA, 2006; also Clinical and Laboratory Standards Institute. Performance Standards for Antimicrobial Susceptibility Testing; Eighteenth Informational Supplement. CLSI document M100-S18 [ISBN1-56238-653-0]. Clinical and Laboratory Standards Institute.
(§2) The following bacterial strains were used:
Escherichia coli EC-1: VOGEL;

[2] = tested on: Acinetobacter baumanii/haemolyticus; experiment: MIC determination, A. baumanii/haemolyticus; type: cell-based; settings: Acinetobacter baumannii; multidrug-resistant clinical isolate; * = arithmetic mean of 2-6 MIC determinations; read-out: MIC (ug/mL) A. baumanii/haemolyticus
Procedure: as §1, §2
Acinetobacter baumanii/haemolyticus: Multidrug-resistant clinical isolate;

[3] = tested on: P. aeruginosa UI-18; experiment: MIC determination, P. aeruginosa UI-18; type: cell-based; settings: Pseudomonas aeruginosa, UI18; wild-type; * = arithmetic mean of 2-6 MIC determinations; read-out: MIC (ug/mL) P. aeruginosa UI-18
Procedure: as §1, §2
P. aeruginosa UI-18: Wild-type;

[4] = tested on: Klebsiella pneumoniae; experiment: MIC determination, K. pneumoniae; type: cell-based; settings: ciprofloxacin-resistant, ESBL-expressing clinical isolate, * = arithmetic mean of 2-6 MIC determinations, read-out: MIC (ug/mL) K. pneumoniae
Procedure: as §1, §2
Klebsiella pneumoniae: Ciprofloxacin-resistant isolate, expresses extended-spectrum beta-lactamases (ESBL), clinical isolate;

[5] = tested on: Enterobacter aerogenes; experiment: MIC determination, E. aerogenes; type: cell-based; settings: Klebsiella aerogenes; quinolone-resistant, ESBL-expressing clinical isolate; * = arithmetic mean of 2-6 MIC determinations; read-out: MIC (ug/mL) E. aerogenes
Procedure: as §1, §2
Enterobacter aerogenes: Quinolone-resistant isolate, expresses extended-spectrum beta-lactamases (ESBL), clinical isolate;

[6] = tested on: P. aeruginosa PAO280; experiment: MIC determination, P. aeruginosa PAO280; type: cell-based; settings: Pseudomonas aeruginosa, PAO280, read-out: MIC (ug/mL) P. aeruginosa PAO280
Procedure: as §1, §2
Pseudomonas aeruginosa PA0280: lacks efflux pumps MexAB-oprM, MexXY and MexZ

[7] = tested on: Staphylococcus aureus ATCC 29213; experiment: MIC determination, S. aureus ATCC 29213; type: cell-based; settings: ATCC29213, CLSI quality control reference strain, * = arithmetic mean of 2-6 MIC determinations, read-out: MIC (ug/mL) S. aureus ATCC 29213
Procedure: as §1, §2
Staphylococcus aureus ATCC 29213: CLSI quality control reference strain; and […]

[8] = molecular target: T1, Pseudomonas aeruginosa LpxC enzyme (Pseudomonas aeruginosa, UniProt P47205); experiment: IC50 assay, LpxC enzyme from P. aeruginosa; type: biochemical; settings: 0.5 nM enzyme, 25° C., pH 8.0, 20 min; ** = average of 2-8 assays
T1 construct: made in house; host or cells: E. coli
T1 sequence (P47205 1-303): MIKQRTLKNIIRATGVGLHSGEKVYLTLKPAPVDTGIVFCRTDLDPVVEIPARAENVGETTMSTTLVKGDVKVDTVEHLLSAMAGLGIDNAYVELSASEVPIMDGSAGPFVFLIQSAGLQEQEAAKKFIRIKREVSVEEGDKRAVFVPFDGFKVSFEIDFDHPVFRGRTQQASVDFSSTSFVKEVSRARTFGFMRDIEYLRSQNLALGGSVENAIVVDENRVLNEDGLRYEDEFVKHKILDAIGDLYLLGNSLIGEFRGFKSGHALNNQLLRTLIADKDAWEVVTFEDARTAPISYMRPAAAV
Procedure: IC50 assay, LpxC enzyme from P. aeruginosa: IC50 determination in the LpxC enzyme assay was carried out in a similar manner to that described by S. A. Hyland et al., J. Bacteriology 1997, 179, 2029-2037. [See also T. Kline et al., J. Medicinal Chemistry 2002, 45, 3112-3129.] Briefly, Pseudomonas aeruginosa LpxC enzyme (0.5 nM) purified from E. coli-overexpressing bacteria was incubated at 25° C. in a final volume of 25 ul containing 0.5 uM UDP-3-O—(R-3-hydroxydecanoyl)-N—[^3H-acetyl]glucosamine (B. D. Maxwell and J. C. Bronstein, J. Labeled Compounds and Radiopharmaceuticals 2005, 48, 1049-1054), 1 mg/ml BSA, and 50 mM sodium phosphate buffer, pH 8.0 in the presence and absence of inhibitor compound. At the end of 20 min, 90 ul of a pre-mixed 3% suspension of activated charcoal in 100 mM sodium acetate, pH 7.5, was added to stop the enzyme reaction. The contents of the well were transferred to a filter plate and filtered, and an aliquot of the filtrate was quantitated by liquid scintillation spectrometry. A no-enzyme control was subtracted in order to eliminate background counts.

Work on Cc1ccc(-c2ccc(CO[C@](C)(C(=O)NO)[C@@H](O)c3cc(CO)on3)cc2)cc1 [Example 37, (2S,3S)-N,3-dihydroxy-3-[5-(hydroxymethyl)isoxazol-3-yl]-2-methyl-2-[(4′-methylbiphenyl-4-yl)methoxy]propanamide] yielded an MIC [1] of 8 µg/mL (≈ 19.4 µM), an MIC [2] of 64 µg/mL (≈ 155 µM) and an MIC [3] of 0.75 µg/mL (≈ 1.82 µM). It also gave an MIC [4] of 16 µg/mL (≈ 38.8 µM), an MIC [5] of 64 µg/mL (≈ 155 µM) and an MIC [6] of 0.015 µg/mL (≈ 0.0364 µM). The MIC [7] was greater than 64 µg/mL and the IC50 [8] was 0.000476 µM.

For Cc1cc([C@H](O)[C@](C)(OCc2ccc(-c3ccc(F)cc3)cc2)C(=O)NO)no1 [Example 38, (2S,3S)-2-[(4′-fluorobiphenyl-4-yl)methoxy]-N,3-dihydroxy-2-methyl-3-(5-methylisoxazol-3-yl)propanamide], the MIC [1] was 2 µg/mL (≈ 4.99 µM), the MIC [2] was 4 µg/mL (≈ 9.99 µM) and the MIC [3] was 1 µg/mL (≈ 2.5 µM). The MIC [4] was 8 µg/mL (≈ 20 µM), the MIC [5] was 64 µg/mL (≈ 160 µM) and the MIC [6] was 0.015 µg/mL (≈ 0.0375 µM). For the same compound, the MIC [7] was greater than 64 µg/mL and the IC50 [8] was 0.000132 µM.

Cc1ccc(-c2ccc(CO[C@](C)(C(=O)NO)[C@@H](O)c3cc(C)on3)cc2)cc1 [Example 39, (2S,3S)-N,3-dihydroxy-2-methyl-2-[(4′-methylbiphenyl-4-yl)methoxy]-3-(5-methylisoxazol-3-yl)propanamide] was tested, and the MIC [1] was 2 µg/mL (≈ 5.04 µM), the MIC [2] was 4 µg/mL (≈ 10.1 µM) and the MIC [3] was 1 µg/mL (≈ 2.52 µM). For the same compound, the MIC [4] was 4 µg/mL (≈ 10.1 µM), the MIC [5] was 32 µg/mL (≈ 80.7 µM) and the MIC [6] was 0.03 µg/mL (≈ 0.0757 µM). For the same compound, the MIC [7] was greater than 64 µg/mL and the IC50 [8] was 0.000589 µM.

Cc1ccc(-c2ccc(CO[C@](C)(C(=O)NO)[C@@H](O)c3cc(CO)on3)cc2)nc1 [Example 40, (2S,3S)-N,3-dihydroxy-3-[5-(hydroxymethyl)isoxazol-3-yl]-2-methyl-2-{[4-(5-methylpyridin-2-yl)benzyl]oxy}propanamide] gave an MIC [1] greater than 64 µg/mL, an MIC [2] greater than 64 µg/mL and an MIC [3] of 16 µg/mL (≈ 38.7 µM). For the same compound, the MIC [4] was greater than 64 µg/mL, the MIC [5] was greater than 64 µg/mL and the MIC [6] was 0.125 µg/mL (≈ 0.302 µM). For the same compound, the MIC [7] was greater than 64 µg/mL and the IC50 [8] was 0.00081 µM.

In the case of C[C@@](OCc1ccc(-c2ccc(C(F)(F)F)cn2)cc1)(C(=O)NO)[C@@H](O)c1cc(CO)on1 [Example 41, (2S,3S)-N,3-dihydroxy-3-[5-(hydroxymethyl)isoxazol-3-yl]-2-methyl-2-({4-[5-(trifluoromethyl)pyridin-2-yl]benzyl}oxy)propanamide], the MIC [1] is reported as greater than 64 µg/mL, the MIC [2] is reported as greater than 64 µg/mL and the MIC [3] is reported as 32 µg/mL (≈ 68.5 µM). For the same compound, the MIC [4] was greater than 64 µg/mL, the MIC [5] was greater than 64 µg/mL and the MIC [6] was 0.25 µg/mL (≈ 0.535 µM). The MIC [7] was greater than 64 µg/mL and the IC50 [8] was 0.00116 µM.

C[C@@](OCc1ccc(-c2ccc(C(F)(F)F)cc2)cc1)(C(=O)NO)[C@@H](O)c1cc(CO)on1 [Example 42, (2S,3S)-N,3-dihydroxy-3-[5-(hydroxymethyl)isoxazol-3-yl]-2-methyl-2-{[4′-(trifluoromethyl)biphenyl-4-yl]methoxy}propanamide] gave an MIC [1] of 16 µg/mL (≈ 34.3 µM), an MIC [2] of 32 µg/mL (≈ 68.6 µM) and an MIC [3] of 2 µg/mL (≈ 4.29 µM). The MIC [4] was greater than 32 µg/mL, the MIC [5] was greater than 32 µg/mL and the MIC [6] was less than 0.06 µg/mL. For the same compound, the MIC [7] was greater than 32 µg/mL and the IC50 [8] was 0.000372 µM.

In the case of C[C@@](OCc1ccc(-c2ccccc2)cc1)(C(=O)NO)[C@@H](O)c1cc(S(C)(=O)=O)on1 [Example 43, (2S,3S)-2-(biphenyl-4-ylmethoxy)-N,3-dihydroxy-2-methyl-3-[5-(methylsulfonyl)isoxazol-3-yl]propanamide], the MIC [1] is reported as 4 µg/mL (≈ 8.96 µM), the MIC [2] is reported as 64 µg/mL (≈ 143 µM) and the MIC [3] is reported as 2 µg/mL (≈ 4.48 µM). The MIC [4] was 16 µg/mL (≈ 35.8 µM), the MIC [5] was 64 µg/mL (≈ 143 µM) and the MIC [6] was 0.03 µg/mL (≈ 0.0672 µM). The MIC [7] was 64 µg/mL (≈ 143 µM) and the IC50 [8] was 0.000686 µM.
